The subject of assay [1] is C57BL/6 mouse ear skin inflammation. The experiment in a line: Intradermal ear injection with U1 dsRNA in mice. Format: in vivo. The conditions noted are these: 24 h; for Gene expression of IL-6 and CXCL10 in mouse ears: C57BL/6 female mice, intradermal ear coinjection of 25 μg U1 dsRNA and 16 μM peptide, qRT-PCR, mutants compared with U1 dsRNA + LL-34 parent; for Mast cells in mouse ear skin (flow cytometry) / Macrophage and neutrophil recruitment in mouse ear skin (flow cytometry): C57BL/6 mice, intradermal coinjection of 25 μg U1 dsRNA and 16 μM peptide, n = 3; for Mast cells in mouse ear skin (flow cytometry): frequency of gated live cells; for Macrophage and neutrophil recruitment in mouse ear skin (flow cytometry): mutants compared with LL-34 parent + U1 dsRNA. As for the experimental part: C57BL/6 female mice at 8 weeks old were injected in the ears intradermally with a single injection of 25 μg of U1 dsRNA and/or LL-34 parent, Pep I24A, or Pep L31A. We investigated gene expression of IL-6, CXCL10, and TSLP in these mice (Fig. 2, B–D). […] This was in agreement with the in vitro results (Fig. 1). We also looked at the infiltration of immune cells to the mouse ear skin with flow cytometry.
Figure 2 LL-34-I24A and LL-34-L31A peptides loose vetting activity in vivo. C57BL/6 mice ears were injected intradermally with either 25 μg of U1 dsRNA, 16 μM LL-34-parent, LL-34-I24A, and LL-34-L31A as shown in the figure for 24 h (n = 6). A, H&E staining of cross sections of mice injected with U1 dsRNA or LL-34 peptides is shown. The bar represents […]. B–D, gene expression changes for IL-6, CXCL10, and TSLP were assessed with qRT-PCR. GAPDH was used as a reference gene. E–G, flow cytometry analysis was performed to assess the infiltration of immune cells in mouse ears injected with U1 dsRNA alone or a combination of U1 dsRNA and LL-34 peptides. Data are represented as the frequency of gated live cells for mast cells, macrophages, and neutrophils. (n = 3) (∗p < 0.05; ∗∗p < 0.01; ∗∗∗p < 0.001; ∗∗∗∗p < 0.0001). One way-ANOVA was used. LL-34, 34-amino acid peptide; ns, not significant.
All mouse procedures were approved by the University of California, San Diego (UCSD) Institutional Animal Care and Use Program (protocol number: S09074). Eight-week-old female C57BL/6 wildtype mice were used for experiments. C57BL/6 mice ears were injected intradermally with U1 dsRNA and/or LL-34 peptides as described previously ([7]). Single injections were performed. A total of 30 μl was injected in the middle part of the ear. Twenty-four hours after the injection, mice were euthanized with CO2 asphyxiation and ears excised and immediately collected in cold RPMI complete medium on ice and processed for immunohistochemistry, gene expression analysis, and flow cytometry within 1 h.
Mouse ears were collected following euthanasia in cold complete RPMI media on ice and cut into small pieces within 60 min, then digested with 2.5 mg/ml collagenase D, and 30 ng/ml DNase1 for 2 h at 37 °C and then filtered through a 30 μm filter to generate single-cell suspension for fluorescence-activated cell sorting analyses. Cells were then stained with Fixable Viability Dye eFluor 506 (eBioscience; 65-0866-14) blocked with antimouse CD16/32 (eBioscience; 14016185, 1:50 dilution), followed by staining with antibody cocktails for immune cells. The antibody cocktail for immune cells included PECy7-CD11b (BioLegend; 101216, 1:200 dilution), FITC-Ly6G (eBioscience; 11593182, 1:150 dilution), PE-F4/80 (eBioscience; 12480182, 1:200 dilution), APC-CD11C (BioLegend; 117310, 1:100 dilution), AF700-MHCII (eBioscience; 56532182, 1:100 dilution), and c-Kit (Biolegend; 10581, 1:100 dilution). Fluorescence-activated cell sorting analyses for surface expression of immune cell markers were performed by the Biorad ZE5 machine and analyzed by FlowJo V10 software (BD Biosciences). Dead cells were gated out from the analyses.

The test system of assay [2] is NHEKs, differentially expressed genes. Kind of assay: RNA-Seq transcriptomic profile of NHEKs. It is filed as cell-based, human. Conditions: U1 + peptide in comparison to U1 + LL-34 parent, protein-protein interaction networks from RNA-Seq. The text has this: RNA-Seq was utilized to obtain a global transcriptomic profile and map unique immune pathways in NHEKs exposed to U1 dsRNA, LL-34 parent, Pep I24A, Pep L31A, and a combination of U1 dsRNA and LL-34 parent, Pep I24A, or Pep L31A. […] Similarly, 448 and 325 unique differentially regulated genes were observed after U1 + I24A and U1 + L31A treatments, respectively (Fig. 3, A and B and Fig. S2, A and B). […] These pathways included type 1 interferon signaling, cytokine signaling, response to external biotic stimulus, and cytokine-mediated signaling pathway. […] We verified the repression of mitochondrial antiviral signaling (MAVS) with immunoblot analysis. NHEKs were treated with U1 dsRNA, LL-34 parent, Pep I24A, Pep L31A, or with a combination of U1 and LL-34 parent, U1 and Pep I24A, or U1 and Pep L31A (Fig. 3E).
RNA was extracted using a PureLink RNA Mini Kit (Life Technologies). Isolated RNA was submitted to the UCSD IGM Genomics Center for RNA-Seq performed on a high-output run V4 platform (Illumina) with a single-read 100 cycle runs. Data alignment was done on Partek Flow software (Partek) with Tophat2 (version 2.0.8). Gene Ontology enrichment analysis was performed on differentially regulated genes (≥1.5-fold) using Partek Flow software. The protein–protein interaction network was generated in the InnateDB database ([44]).

Residues, ends and D or L forms follow the SMILES beside them.

As for `CC[C@H](C)[C@H](NC(=O)[C@H](CCCCN)NC(=O)[C@H](CCC(=O)O)NC(=O)[C@H](CCCCN)NC(=O)[C@H](CO)NC(=O)[C@H](CCCCN)NC(=O)[C@H](CCCNC(=N)N)NC(=O)[C@H](Cc1ccccc1)NC(=O)[C@H](Cc1ccccc1)NC(=O)[C@H](CC(=O)O)NC(=O)CNC(=O)[C@H](CC(C)C)NC(=O)[C@@H](N)CC(C)C)C(=O)NCC(=O)N[C@@H](CCCCN)C(=O)N[C@@H](CCC(=O)O)C(=O)N[C@@H](Cc1ccccc1)C(=O)N[C@@H](CCCCN)C(=O)N[C@@H](CCCNC(=N)N)C(=O)N[C@H](C(=O)N[C@H](C(=O)N[C@@H](CCC(N)=O)C(=O)N[C@@H](CCCNC(=N)N)C(=O)N[C@@H](C)C(=O)N[C@@H](CCCCN)C(=O)N[C@@H](CC(=O)O)C(=O)N[C@@H](Cc1ccccc1)C(=O)N[C@@H](CC(C)C)C(=O)N[C@@H](CCCNC(=N)N)C(=O)N[C@@H](CC(N)=O)C(=O)N[C@@H](CC(C)C)C(=O)N[C@H](C(=O)N1CCC[C@H]1C(=O)N[C@@H](CCCNC(=N)N)C(=O)O)C(C)C)C(C)C)[C@@H](C)CC` [LL-34—I24A] (H-LLGDFFRKSKEKIGKEFKRIVQRAKDFLRNLVPR-OH), in assay [1], the “Gene expression of IL-6 and CXCL10 in mouse ears” value is listed as “significantly reduced”; the “Mast cells in mouse ear skin (flow cytometry)” value is “similarly increased mast cells”; the “Macrophage and neutrophil recruitment in mouse ear skin (flow cytometry)” value was “significant reduction in macrophage and neutrophil recruitment”. Also, in assay [2], the “Type I interferon signaling and RIGI antiviral pathway genes (STAT, ISG15, OAS1, IRF2, DDX58, MAVS)” value is reported as “repressed”.
On to `CC[C@H](C)[C@H](NC(=O)[C@H](CCCCN)NC(=O)[C@H](CCC(=O)O)NC(=O)[C@H](CCCCN)NC(=O)[C@H](CO)NC(=O)[C@H](CCCCN)NC(=O)[C@H](CCCNC(=N)N)NC(=O)[C@H](Cc1ccccc1)NC(=O)[C@H](Cc1ccccc1)NC(=O)[C@H](CC(=O)O)NC(=O)CNC(=O)[C@H](CC(C)C)NC(=O)[C@@H](N)CC(C)C)C(=O)NCC(=O)N[C@@H](CCCCN)C(=O)N[C@@H](CCC(=O)O)C(=O)N[C@@H](Cc1ccccc1)C(=O)N[C@@H](CCCCN)C(=O)N[C@@H](CCCNC(=N)N)C(=O)N[C@H](C(=O)N[C@H](C(=O)N[C@@H](CCC(N)=O)C(=O)N[C@@H](CCCNC(=N)N)C(=O)N[C@H](C(=O)N[C@@H](CCCCN)C(=O)N[C@@H](CC(=O)O)C(=O)N[C@@H](Cc1ccccc1)C(=O)N[C@@H](CC(C)C)C(=O)N[C@@H](CCCNC(=N)N)C(=O)N[C@@H](CC(N)=O)C(=O)N[C@@H](C)C(=O)N[C@H](C(=O)N1CCC[C@H]1C(=O)N[C@@H](CCCNC(=N)N)C(=O)O)C(C)C)[C@@H](C)CC)C(C)C)[C@@H](C)CC` [LL-34—L31A] (H-LLGDFFRKSKEKIGKEFKRIVQRIKDFLRNAVPR-OH), for which, in assay [1], the “Gene expression of IL-6 and CXCL10 in mouse ears” value is “significantly reduced”; the “Mast cells in mouse ear skin (flow cytometry)” value is “significant decrease in mast cell number”; the “Macrophage and neutrophil recruitment in mouse ear skin (flow cytometry)” value is “significant reduction in macrophage and neutrophil recruitment”.

Values taken from paper PMC8214221, “Sequence determinants in the cathelicidin LL-37 that promote inflammation via presentation of RNA to scavenger receptors” (The Journal of Biological Chemistry, 2021).
